This is an account of results in US20060293264A1, “STAT3 decoy oligonucleotides and uses therefor” (priority 2004, published 2006).

Data set [1] concerns PCI-15B cells. Description: Gossypol dose response, MTT assays and cell counting. Format: cell-based. The note with it: 72 h, day 3 after treatment. The method, then: In FIG. 7, PCI-15B cells were treated with 0, 0.003, 0.03, 3, and 30 μM gossypol. After 3 days, MTT assays and cell counting experiments were performed. […] Bars indicate standard error. […] The STAT3 decoy will be combined with gossypol to determine the antitumor efficacy of the combination treatment.

Data set [2] concerns p53-responsive element. Description: p53-Luciferase reporter gene assay in UM-22B SCCHN cells. Format: cell-based. The conditions noted are these: UM-22B p53-Luc, 2 μg transfected, 24 hrs. As for the experimental part: FIG. 8 depicts the inhibition of reporter gene expression from a p53-responsive element in SCCHN cells. An SCCHN cell line, UM-22B, was used to generate a stable cell line expressing a p53-Luciferase (p53-Luc) reporter gene (The p53-Luc plasmid carrying 14 repeats of p53 transcription recognition sequence: 5'-[…] ID NO: 30)), was obtained from Stratagene, Catalog number: 219085-51). The cells were transfected with 2 μg of the STAT3 decoy or the control mutant decoy. At 24 hrs after transfection, luciferase (Luc) activity was measured and normalized to the total amount of protein according to standard methods.

For data set [3], the target named is T1, STAT1 (Homo sapiens, UniProt P42224).
T1 construct: Nuclear protein extracts of PCI-15B cells, prepared according to standard methods, were used for the EMSA; endogenous in cells; host or cells: PCI-15B cells (nuclear extract)
T1 sequence (P42224 2-750 limits assumed): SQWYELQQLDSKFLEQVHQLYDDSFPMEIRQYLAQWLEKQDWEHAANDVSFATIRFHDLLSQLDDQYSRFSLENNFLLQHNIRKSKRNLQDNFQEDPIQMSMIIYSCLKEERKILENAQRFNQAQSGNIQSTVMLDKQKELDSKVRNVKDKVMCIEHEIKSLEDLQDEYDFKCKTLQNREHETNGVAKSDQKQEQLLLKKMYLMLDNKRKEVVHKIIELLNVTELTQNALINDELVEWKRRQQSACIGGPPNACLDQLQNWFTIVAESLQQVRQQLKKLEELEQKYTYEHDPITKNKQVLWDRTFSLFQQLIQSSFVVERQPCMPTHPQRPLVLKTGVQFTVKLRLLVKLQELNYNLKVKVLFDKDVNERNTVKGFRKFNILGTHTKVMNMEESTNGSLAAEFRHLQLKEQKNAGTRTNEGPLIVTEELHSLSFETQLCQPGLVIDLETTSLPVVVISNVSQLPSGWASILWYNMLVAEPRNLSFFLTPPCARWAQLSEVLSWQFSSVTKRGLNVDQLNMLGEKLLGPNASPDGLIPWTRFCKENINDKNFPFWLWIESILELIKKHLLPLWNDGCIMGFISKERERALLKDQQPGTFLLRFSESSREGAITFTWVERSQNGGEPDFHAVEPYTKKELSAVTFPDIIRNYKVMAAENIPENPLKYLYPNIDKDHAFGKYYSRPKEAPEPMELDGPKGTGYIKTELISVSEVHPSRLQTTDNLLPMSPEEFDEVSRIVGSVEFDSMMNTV
The data set can be described thus: EMSA of STAT1 binding to the STAT3 decoy, PCI-15B nuclear extracts. The conditions noted are these: supershift. As for the experimental part: FIG. 10 depicts binding of STAT 1 to the STAT3 decoy in an electrophoretic mobility shift assay (EMSA). Nuclear protein extracts of PCI-15B cells, prepared according to standard methods, were used for the EMSA. The specificity of STAT1 or STAT3 binding to the STAT3 decoy was determined by supershifting with STAT1- or STAT3-specific antibodies, or both. The experiment has been repeated more than 3 times.

Data set [4] relates to GAS-responsive element. Description: pGAS-Luc reporter gene assay in UM-22B SCCHN cells. The class given is cell-based. The note with it: UM-22B pGAS-Luc, 2 μg transfected, 24 hrs, IFN-γ stimulation. As for the experimental part: FIG. 9 depicts the inhibition of reporter gene expression from GAS-responsive element in SCCHN cells. An SCCHN cell line, UM-22B, was used to generate a stable cell line expressing a pGAS-Luc reporter gene (pGAS-Luc plasmid carrying 4 repeats of GAS sequence: [NT] ID NO: 31), was obtained from Stratagene, Catalog number: 219091-51). The cells were transfected with 2 μg of the STAT3 decoy or the control mutant decoy. At 24 hrs after transfection, luciferase activity was measured and normalized to the total amount of protein.
Background: A reporter such as luciferase makes a cellular process visible.

Data set [5] concerns the target T2, STAT3 (Homo sapiens, UniProt P40763).
T2 construct: Whole cell extracts were prepared and EMSAs performed on 4% native polyacrylamide gels; endogenous in cells; host or cells: whole cell extracts
Description: EMSA of STAT3 decoy and derivative decoys, relative binding to STAT3. The method, then:
Derivative decoys were identified by electrophoretic mobility shift assay, performed as described herein. Table 1 describes a number of STAT3 decoy derivatives along with their relative binding to STAT3.
Electrophoretic Mobility Shift Assay (EMSA). Whole cell extracts were prepared and EMSAs performed on 4% native polyacrylamide gels as described (Xi, S., et al. J Biol Chem, 278: 31574-31583, 2003 and Wong, P., etal. Mol Cell Biol, 14. 914-922, 1994). STAT3 activation was evaluated by using binding reactions with 20 μg of extracted protein, and radiolabeled high-affinity serum inducible element (hSIE) duplex oligonucleotide (Wagner et al., EMBO J. 9(13):4477-4484 (1990)). Quantification of the STAT3 signal was performed by scanning the SIF-A band using a Molecular Dynamics Personal Densitometer SI and IMAGEQUANT software. […] For supershift experiments, extracts were preincubated with STAT3 polyclonal antibody (C-20, Santa Cruz Biotechnology). Gel shift bands were quantified by densitometry and the Molecular Analyst software (AlphaDigidoc 1000, Alpha-Innotech) with normalization of each band to the positive control lysate run on that gel as described previously for STAT3 activation determinations (Grandis, J. R. et al. Proc Natl Acad Sci USA, 97: 4227-4232., 2000).
(In EMSA bound probe runs differently from free probe, usually more slowly.)

T2 sequence (P40763 2-770 limits assumed): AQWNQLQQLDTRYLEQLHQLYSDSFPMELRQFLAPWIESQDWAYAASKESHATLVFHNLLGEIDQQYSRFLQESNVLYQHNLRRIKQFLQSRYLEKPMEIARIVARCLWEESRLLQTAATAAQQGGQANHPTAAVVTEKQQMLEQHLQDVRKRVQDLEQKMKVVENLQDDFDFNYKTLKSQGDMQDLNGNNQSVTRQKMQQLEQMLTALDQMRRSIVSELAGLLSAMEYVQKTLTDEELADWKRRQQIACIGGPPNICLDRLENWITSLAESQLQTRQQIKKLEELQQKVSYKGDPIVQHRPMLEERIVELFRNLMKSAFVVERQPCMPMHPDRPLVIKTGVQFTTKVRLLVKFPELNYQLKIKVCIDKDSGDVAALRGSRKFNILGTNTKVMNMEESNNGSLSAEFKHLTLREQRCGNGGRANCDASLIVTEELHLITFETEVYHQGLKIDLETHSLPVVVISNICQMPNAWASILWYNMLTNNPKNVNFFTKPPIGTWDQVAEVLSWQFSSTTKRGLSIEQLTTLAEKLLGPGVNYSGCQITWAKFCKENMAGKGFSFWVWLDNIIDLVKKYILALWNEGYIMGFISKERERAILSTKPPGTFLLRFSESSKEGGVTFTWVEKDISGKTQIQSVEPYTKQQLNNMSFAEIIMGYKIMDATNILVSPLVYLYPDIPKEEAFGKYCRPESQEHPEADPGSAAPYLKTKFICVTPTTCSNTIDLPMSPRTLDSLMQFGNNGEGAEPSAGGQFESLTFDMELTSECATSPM

`Cc1cc2c(C(C)C)c(O)c(O)c(C=O)c2c(O)c1-c1c(C)cc2c(C(C)C)c(O)c(O)c(C=O)c2c1O` [gossypol, 2,2′-bis-(Formyl-1,6,7-trihydroxy-5-isopropyl-3-methylnaphthalene)]: the IC50 (in general, the midpoint of a concentration-inhibition curve) in data set [1] stood at 297 nM.

“mutant control decoy: double-stranded oligonucleotide 5′-CATTTCCCTTAAATC-3′, 3′-GTAAAGGGAATTTAG-5′; same sequence as Mutant 3 of Table 1 [reference compound]”: in data set [2], the p53 reporter activity entry was “not”. Further, in data set [3], the “binding to STAT1” value is recorded as “not”. Also, in data set [4], the “reporter gene expression from a GAS-responsive element (STAT1 reporter activity)” value is recorded as “not”.

B1: longer sequence: 5′-AGCTTGTCGACATTTCCCGTAAATCGTCGAG-3′, 3′-…-5′; longer decoy initially examined (nucleic acid, listed as Homo sapiens)
sense: AGCTTGTCGACATTTCCCGTAAATCGTCGAG
antisense: CTCGACGATTTACGGGAAATGTCGACAAGCT
modifications: listed as DNA, chemistry not given here
notes: longer decoy initially examined
On to B1, for which, in data set [5], the “blocking STAT3 activation” value is “effective”.
